According to PubChem BioAssay AID330 (DTP/NCI, 2004):
Several values for one entry are separate records, joined by “and”; a condition that tells them apart may be missing. Identical values can stand only once. Toxic doses and inconclusive results are not listed. The calls were made as follows: active = survival T/C of 150% or more; inactive = T/C below 125% in these data. Square brackets hold non-standard residues; d marks the D form. Peptide text beside a SMILES is read from it. Tyr(3,5-I2) = N[CH](Cc1cc(I)c(O)c(I)c1)C(=O)O

System: P388 leukemia ip, CD2F1 mice, survival T/C
Experiment: NCI In Vivo Anticancer Drug Screen. Data for tumor model P388 Leukemia (intraperitoneal) in CD2F1 (CDF1) mice
Details: endpoint: median survival time, higher = longer survival
Summary of the method: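 Mice carrying the transplanted tumor received test compound or vehicle. Survival was recorded in each group, and the value is the treated-group measurement divided by that of the vehicle-treated control group.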

[1] = dose: 50.0 mg/kg/injection, schedule: Q01DX005 (ip), vehicle: Klucel (hydroxypropylcellulose) (HPC)
[2] = dose: 100.0 mg/kg/injection, schedule: Q01DX005 (ip), vehicle: Klucel (hydroxypropylcellulose) (HPC)
[3] = dose: 200.0 mg/kg/injection, schedule: Q01DX005 (ip), vehicle: Klucel (hydroxypropylcellulose) (HPC)
[4] = dose: 50.0 mg/kg/injection, schedule: Q01DX009 (ip), vehicle: Klucel (hydroxypropylcellulose) (HPC)
[5] = dose: 100.0 mg/kg/injection, schedule: Q01DX009 (ip), vehicle: Klucel (hydroxypropylcellulose) (HPC)
[6] = dose: 200.0 mg/kg/injection, schedule: Q01DX009 (ip), vehicle: Klucel (hydroxypropylcellulose) (HPC)
[7] = dose: 100.0 mg/kg/injection, schedule: Q01DX001 (ip), vehicle: saline with Tween-80
[8] = dose: 200.0 mg/kg/injection, schedule: Q01DX001 (ip), vehicle: saline with Tween-80
[9] = dose: 400.0 mg/kg/injection, schedule: Q01DX001 (ip), vehicle: saline with Tween-80
[10] = dose: 50.0 mg/kg/injection, schedule: Q01DX009 (ip), vehicle: saline with Tween-80
[11] = dose: 6.25 mg/kg/injection, schedule: Q01DX009 (ip), vehicle: saline
[12] = dose: 12.5 mg/kg/injection, schedule: Q01DX009 (ip), vehicle: saline
[13] = dose: 25.0 mg/kg/injection, schedule: Q01DX009 (ip), vehicle: saline
[14] = dose: 50.0 mg/kg/injection, schedule: Q01DX009 (ip), vehicle: saline
[15] = dose: 100.0 mg/kg/injection, schedule: Q01DX009 (ip), vehicle: saline
[16] = dose: 50.0 mg/kg/injection, schedule: Q01DX005 (ip), vehicle: saline with Tween-80
[17] = dose: 100.0 mg/kg/injection, schedule: Q01DX005 (ip), vehicle: saline with Tween-80
[18] = dose: 200.0 mg/kg/injection, schedule: Q01DX005 (ip), vehicle: saline with Tween-80
[19] = dose: 25.0 mg/kg/injection, schedule: Q01DX001 (ip), vehicle: saline with Tween-80

Measured: T/C

CC(=O)NC(Cc1ccccc1)C(=O)NC(Cc1cc(I)c(O)c(I)c1)C(=O)O (stereo unspecified) (Ac-Phe-[Tyr(3,5-I2)]-OH; configuration not given here)
inactive: [1] 93 % of control | [2] 107 % of control | [3] 99 % of control

COc1ccc(=NC(C)=O)c2c(O)c3c(=O)c4[nH]c5c(OC)ccc(=NC(C)=O)c5c(O)c4c(=O)c3[nH]c12
inactive: [4] 89 % of control | [5] 99 % of control | [6] 99 % of control

O=C(c1ccccc1)c1nonc1C(=O)c1ccccc1
inactive: [7] 95 % of control | [8] 104 % of control | [9] 95 % of control

C/C=C1\C(=O)OC23C=CC4C(C(=O)OC)C(O)OC(OC12)C43 (stereo unspecified)
inactive: dose: 0.12 mg/kg/injection, schedule: Q01DX009 (ip), vehicle: saline 89 % of control | dose: 0.25 mg/kg/injection, schedule: Q01DX009 (ip), vehicle: Klucel (hydroxypropylcellulose) (HPC) 100 % of control | dose: 0.25 mg/kg/injection, schedule: Q01DX009 (ip), vehicle: saline 104 % of control | dose: 0.5 mg/kg/injection, schedule: Q01DX009 (ip), vehicle: Klucel (hydroxypropylcellulose) (HPC) 99 % of control | dose: 0.5 mg/kg/injection, schedule: Q01DX009 (ip), vehicle: saline 106 % of control | dose: 1.0 mg/kg/injection, schedule: Q01DX009 (ip), vehicle: Klucel (hydroxypropylcellulose) (HPC) 98 % of control | dose: 1.0 mg/kg/injection, schedule: Q01DX009 (ip), vehicle: saline with Tween-80 106 % of control | dose: 1.0 mg/kg/injection, schedule: Q01DX009 (ip), vehicle: saline 101 % of control | dose: 2.0 mg/kg/injection, schedule: Q01DX009 (ip), vehicle: Klucel (hydroxypropylcellulose) (HPC) 98 % of control | dose: 2.0 mg/kg/injection, schedule: Q01DX009 (ip), vehicle: saline with Tween-80 110 % of control | dose: 4.0 mg/kg/injection, schedule: Q01DX009 (ip), vehicle: saline with Tween-80 107 % of control

Cc1ccc2c3nc4ccccc4c-3csc2c1
inactive: dose: 18.0 mg/kg/injection, schedule: Q01DX009 (ip), vehicle: saline 104 % of control | dose: 27.5 mg/kg/injection, schedule: Q01DX009 (ip), vehicle: saline 89 % of control

COc1ccc2nc3cc(Cl)ccc3c(NCCNCCNCCNc3c4ccc(Cl)cc4nc4ccc(OC)cc34)c2c1
inactive: [10] 115 % of control

c1c(-c2cc(C3CC3)on2)noc1C1CC1
inactive: dose: 60.0 mg/kg/injection, schedule: Q01DX005 (ip), vehicle: saline 100 % of control | dose: 120.0 mg/kg/injection, schedule: Q01DX005 (ip), vehicle: saline 109 % of control | dose: 240.0 mg/kg/injection, schedule: Q01DX005 (ip), vehicle: saline 105 % of control

NCCc1cc(O)c(O)cc1O
inactive: [11] 101 % of control and 105 % of control | [12] 107 % of control and 97 % of control | [13] 101 % of control and 109 % of control | [14] 100 % of control and 111 % of control

CCOC(=O)C(=O)Nc1ccc2cc(OC)ccc2c1C#N
inactive: [11] 94 % of control | [12] 94 % of control | [13] 91 % of control | [14] 99 % of control | [15] 106 % of control | dose: 200.0 mg/kg/injection, schedule: Q01DX009 (ip), vehicle: saline 106 % of control

CC(O)CO (stereo unspecified)
inactive: dose: 1.56 % in 0.5 ml injection vol, schedule: Q01DX009 (ip), vehicle: water 112 % of control | dose: 3.12 % in 0.5 ml injection vol, schedule: Q01DX009 (ip), vehicle: water 119 % of control | dose: 6.25 % in 0.5 ml injection vol, schedule: Q01DX009 (ip), vehicle: water 110 % of control and 119 % of control | dose: 12.5 % in 0.5 ml injection vol, schedule: Q01DX009 (ip), vehicle: water 111 % of control and 113 % of control | dose: 25.0 % in 0.5 ml injection vol, schedule: Q01DX009 (ip), vehicle: water 104 % of control and 110 % of control | dose: 50.0 % in 0.5 ml injection vol, schedule: Q01DX009 (ip), vehicle: water 88 % of control

CN(C)c1ccc(C(Cc2ccc3ccccc3n2)Cc2ccc3ccccc3n2)cc1
inactive: [16] 99 % of control | [17] 88 % of control | [18] 89 % of control

COc1ccc(C=NC(C)(C)CO)cc1OC
inactive: dose: 25.0 mg/kg/injection, schedule: Q01DX005 (ip), vehicle: Klucel (hydroxypropylcellulose) (HPC) 100 % of control | [1] 109 % of control | [2] 101 % of control | [3] 100 % of control

C[Si]1(C)N(c2ccccc2)[Si](C)(c2ccccc2)N1c1ccccc1
inactive: [1] 94 % of control | [2] 111 % of control | [3] 111 % of control

O=C(CCl)NCCCl
inactive: [14] 97 % of control | [15] 100 % of control

O=C1C=CC(=O)N1c1ccc([N+](=O)[O-])cc1
inactive: dose: 12.5 mg/kg/injection, schedule: Q01DX009 (ip), vehicle: saline with Tween-80 101 % of control | dose: 25.0 mg/kg/injection, schedule: Q01DX009 (ip), vehicle: saline with Tween-80 101 % of control | [10] 99 % of control

O=S(=O)(O)c1ccccc1O
inactive: [19] 111 % of control | dose: 50.0 mg/kg/injection, schedule: Q01DX001 (ip), vehicle: saline with Tween-80 98 % of control | [7] 99 % of control

O=C(O)C1C(C(=O)O)C2(Cl)C(Cl)=C(Cl)C1(Cl)C2(Cl)Cl.[Fe] (stereo unspecified)
inactive: dose: 6.25 mg/kg/injection, schedule: Q01DX001 (ip), vehicle: saline with Tween-80 100 % of control | dose: 12.5 mg/kg/injection, schedule: Q01DX001 (ip), vehicle: saline with Tween-80 104 % of control | [19] 109 % of control

CC12C(=O)OC(=O)C1CCc1c2ccc2ccccc12 (stereo unspecified)
inactive: [16] 107 % of control | [17] 110 % of control | [18] 107 % of control

COc1cc(O)c2c(c1O)C1(C)C(=O)CCCC1(O)CC2=O (stereo unspecified)
inactive: [7] 90 % of control | [8] 100 % of control | [9] 100 % of control

Cc1ccc2c(c1)[C@]1(C)O[C@@H](C=C[C@@H]1O)O2
inactive: dose: 100.0 mg/kg/injection, schedule: Q01DX001 (ip), vehicle: Klucel (hydroxypropylcellulose) (HPC) 104 % of control | dose: 200.0 mg/kg/injection, schedule: Q01DX001 (ip), vehicle: Klucel (hydroxypropylcellulose) (HPC) 102 % of control

CN1C2=NC(=O)NC(=O)C23OC3c2ccccc21 (stereo unspecified) (tested in a mixture with another compound)
inactive: [1] 102 % of control | [2] 103 % of control

CCC(C)c1ccc(S(=O)(=O)Nc2cc(Cl)c([N+](=O)[O-])cc2O)cc1 (stereo unspecified)
inactive: [4] 104 % of control | [5] 100 % of control | [6] 102 % of control

CC(CN=C(CC(=O)C(F)(F)F)C(F)(F)F)N=C(CC(=O)C(F)(F)F)C(F)(F)F.[Ni] (stereo unspecified)
inactive: dose: 100.0 mg/kg/injection, schedule: Q04DX002 (ip), vehicle: saline with Tween-80 98 % of control | dose: 200.0 mg/kg/injection, schedule: Q04DX002 (ip), vehicle: saline with Tween-80 98 % of control | dose: 400.0 mg/kg/injection, schedule: Q04DX002 (ip), vehicle: saline with Tween-80 93 % of control

CCOC1(C)OC2OC(COC(C)=O)C(OC(C)=O)C(OC(C)=O)C2O1 (stereo unspecified)
inactive: dose: 4.0 mg/kg/injection, schedule: Q01DX009 (ip), vehicle: other 95 % of control | dose: 8.0 mg/kg/injection, schedule: Q01DX009 (ip), vehicle: other 99 % of control | dose: 16.0 mg/kg/injection, schedule: Q01DX009 (ip), vehicle: other 102 % of control | dose: 32.0 mg/kg/injection, schedule: Q01DX009 (ip), vehicle: other 104 % of control | dose: 50.0 mg/kg/injection, schedule: Q01DX009 (ip), vehicle: other 95 % of control | dose: 64.0 mg/kg/injection, schedule: Q01DX009 (ip), vehicle: other 98 % of control | dose: 100.0 mg/kg/injection, schedule: Q01DX009 (ip), vehicle: other 100 % of control | dose: 200.0 mg/kg/injection, schedule: Q01DX009 (ip), vehicle: other 104 % of control | dose: 400.0 mg/kg/injection, schedule: Q01DX009 (ip), vehicle: other 95 % of control

O=c1[nH]c(=O)n(CC(O)CO)cc1/C=C/Br (stereo unspecified)
inactive: [7] 106 % of control | [8] 101 % of control | [9] 100 % of control
